Laboratory results from patent US20090170827A1, “Acid Addition Salt of Dihydropyridine Derivative” (Daiichi Sankyo Company , Limited, priority 2005, published 2009).

Experiment: Thermal stability test
Assay type: physicochemical
Experimental: The test compound was placed in a glass bottle and allowed to stand under the following conditions (1) and (2). After a certain period of time had elapsed, the residual rate of the active ingredient [compound (I)] in the test compound was measured by high performance liquid chromatography.
(1): Closed state, 60° C.;
(2): Non-closed state, 40° C., humidity 75%.
The measurement conditions in high performance liquid chromatography are as follows.
Column: L-column ODS [4.6 mm×250 mm, manufactured by Chemicals Evaluation and Research Institute, Japan]
Mobile layer: acetonitrile/22 mM potassium dihydrogenphosphate buffer/methanol=455/350/195 (V/V/V) (adjusted to pH 5.5 by phosphoric acid)
Column temperature: 40° C.
Detection wavelength: 220 nm
The residual rate (%) was calculated by the following formula.
The residual rate (%)=[1−(sum of peak area percentages of impurities and decomposed products)]×100

[1] = Condition (1): closed state, 60° C., time 0 month
[2] = Condition (1): closed state, 60° C., time 1 month
[3] = Condition (1): closed state, 60° C., time 3 months
[4] = Condition (1): closed state, 60° C.
[5] = Condition (1): closed state, 60° C., time 0 month, dihydrochloride
[6] = Condition (1): closed state, 60° C., time 1 month, dihydrochloride
[7] = Condition (2): non-closed state, 40° C., humidity 75%, dihydrochloride
[8] = Condition (2): non-closed state, 40° C., humidity 75%, time 0 month, dihydrochloride
[9] = Condition (1): closed state, 60° C., time 6 months
[10] = Condition (2): non-closed state, 40° C., humidity 75%
[11] = Condition (2): non-closed state, 40° C., humidity 75%, time 0 month
[12] = Condition (2): non-closed state, 40° C., humidity 75%, time 1 month
[13] = Condition (2): non-closed state, 40° C., humidity 75%, time 3 months
[14] = Condition (2): non-closed state, 40° C., humidity 75%, time 6 months

Row | Compound | Residual rate of Compound (I) [1] [%] | Residual rate of Compound (I) [2] [%] | Residual rate of Compound (I) [3] [%] | stability (in words) [4] | Residual rate of Compound (I) [5] [%] | Residual rate of Compound (I) [6] [%] | stability (in words) [7] | Residual rate of Compound (I) [8] [%] | Residual rate of Compound (I) (Condition (2): non-closed state, 40° C., humidity 75%, time 1 month, Dihydrochloride) [%] | Residual rate of Compound (I) [9] [%] | stability (in words) [10] | Residual rate of Compound (I) [11] [%] | Residual rate of Compound (I) [12] [%] | Residual rate of Compound (I) [13] [%] | Residual rate of Compound (I) [14] [%]
1 | CC1=C(C(=O)OC(C)C)C(c2cccc([N+](=O)[O-])c2)C(C(=O)OC2CN(C(c3ccccc3)c3ccccc3)C2)=C(N)N1.Cl.Cl (centres unmarked) [Comparative Example 2, 2-Amino-1,4-dihydro-6-methyl-4-(3-nitrophenyl)-3,5-pyridinedicarboxylic Acid 3-(1-diphenylmethylazetidin-3-yl)ester 5-isopropyl Ester Dihydrochloride, reference compound] | – | – | – | extremely low stability | 97.3 | 10.3 | extremely low stability | 97.3 | 11.3 | – | – | – | – | – | –
2 | CC1=C(C(=O)OC(C)C)C(c2cccc([N+](=O)[O-])c2)C(C(=O)OC2CN(C(c3ccccc3)c3ccccc3)C2)=C(N)N1.O=S(=O)(O)c1ccccc1.O=S(=O)(O)c1ccccc1 (centres unmarked) [Example 5, 2-Amino-1,4-dihydro-6-methyl-4-(3-nitrophenyl)-3,5-pyridinedicarboxylic acid 3-(1-diphenylmethylazetidin-3-yl)ester 5-isopropyl ester dibenzenesulfonate] | 99.7 | 98.6 | 96.5 | equal in stability | – | – | – | – | – | 93.3 | – | – | – | – | –
3 | 2-Amino-1,4-dihydro-6-methyl-4-(3-nitrophenyl)-3,5-pyridinedicarboxylic acid 3-(1-diphenylmethylazetidin-3-yl)ester 5-isopropyl Ester Dinaphthalenesulfonate [Example 7] | 99.4 | 97.3 | 95.4 | equal in stability | – | – | – | – | – | 93.0 | – | – | – | – | –
4 | CC1=C(C(=O)OC(C)C)C(c2cccc([N+](=O)[O-])c2)C(C(=O)OC2CN(C(c3ccccc3)c3ccccc3)C2)=C(N)N1.Cc1ccc(S(=O)(=O)O)cc1.Cc1ccc(S(=O)(=O)O)cc1 (centres unmarked) [Example 6, 2-Amino-1,4-dihydro-6-methyl-4-(3-nitrophenyl)-3,5-pyridinedicarboxylic acid 3-(1-diphenylmethylazetidin-3-yl)ester 5-isopropyl ester di-p-toluenesulfonate] | 99.6 | 98.8 | 98.3 | – | – | – | – | – | – | 97.3 | excellent stability | 99.6 | 97.5 | 96.4 | 94.5
5 | CC1=C(C(=O)OC(C)C)C(c2cccc([N+](=O)[O-])c2)C(C(=O)OC2CN(C(c3ccccc3)c3ccccc3)C2)=C(N)N1.O=C(O)CC(O)(CC(=O)O)C(=O)O (single isomer, unassigned) [Example 2, 2-Amino-1,4-dihydro-6-methyl-4-(3-nitrophenyl)-3,5-pyridinedicarboxylic acid 3-(1-diphenylmethylazetidin-3-yl)ester 5-isopropyl ester monocitrate] | 98.8 | 96.9 | 95.8 | equal in stability | – | – | – | – | – | – | – | – | – | – | –
6 | 2-Amino-1,4-dihydro-6-methyl-4-(3-nitrophenyl)-3,5-pyridinedicarboxylic Acid 3-(1-diphenylmethylazetidin-3-yl)ester 5-isopropyl Ester Hemifumarate [Comparative Example 4, reference compound] | 99.7 | 96.7 | 93.0 | did not have high stability | – | – | – | – | – | – | low stability | 99.7 | 94.8 | 91.3 | –
7 | CC1=C(C(=O)OC(C)C)C(c2cccc([N+](=O)[O-])c2)C(C(=O)OC2CN(C(c3ccccc3)c3ccccc3)C2)=C(N)N1.CS(=O)(=O)O.CS(=O)(=O)O.CS(=O)(=O)O (centres unmarked) [Example 4, 2-Amino-1,4-dihydro-6-methyl-4-(3-nitrophenyl)-3,5-pyridinedicarboxylic acid 3-(1-diphenylmethylazetidin-3-yl)ester 5-isopropyl ester trimethanesulfonate] | 99.5 | 98.6 | 98.1 | – | – | – | – | – | – | – | excellent stability | 99.5 | 99.1 | 98.8 | –

The remaining lines, values ahead:

Row | Residual rate of Compound (I) [1] [%] | Residual rate of Compound (I) [2] [%] | Residual rate of Compound (I) [3] [%] | stability (in words) [4] | Residual rate of Compound (I) [5] [%] | Residual rate of Compound (I) [6] [%] | stability (in words) [7] | Residual rate of Compound (I) [8] [%] | Residual rate of Compound (I) (Condition (2): non-closed state, 40° C., humidity 75%, time 1 month, Dihydrochloride) [%] | Residual rate of Compound (I) [9] [%] | stability (in words) [10] | Residual rate of Compound (I) [11] [%] | Residual rate of Compound (I) [12] [%] | Residual rate of Compound (I) [13] [%] | Residual rate of Compound (I) [14] [%] | Compound
8 | 99.6 | 98.7 | 98.5 | – | – | – | – | – | – | – | – | – | – | – | – | CC1=C(C(=O)OC(C)C)C(c2cccc([N+](=O)[O-])c2)C(C(=O)OC2CN(C(c3ccccc3)c3ccccc3)C2)=C(N)N1.CS(=O)(=O)O.CS(=O)(=O)O (centres unmarked) [Example 3, 2-Amino-1,4-dihydro-6-methyl-4-(3-nitrophenyl)-3,5-pyridinedicarboxylic acid 3-(1-diphenylmethylazetidin-3-yl)ester 5-isopropyl ester dimethanesulfonate]
9 | – | – | 58.9 | extremely low stability | 98.1 | 60.0 | low stability | 98.1 | – | – | – | – | 62.9 | 59.0 | – | CC1=C(C(=O)OC(C)C)C(c2cccc([N+](=O)[O-])c2)C(C(=O)OC2CN(C(c3ccccc3)c3ccccc3)C2)=C(N)N1.Cl.Cl (centres unmarked) [Comparative Example 1, 2-Amino-1,4-dihydro-6-methyl-4-(3-nitrophenyl)-3,5-pyridinedicarboxylic acid 3-(1-diphenylmethylazetidin-3-yl)ester 5-isopropyl ester dihydrochloride, reference compound]
10 | 99.5 | 96.9 | 94.9 | did not have high stability | – | – | – | – | – | 92.8 | low stability | 99.5 | 93.9 | 88.9 | 84.8 | CC1=C(C(=O)OC(C)C)C(c2cccc([N+](=O)[O-])c2)C(C(=O)OC2CN(C(c3ccccc3)c3ccccc3)C2)=C(N)N1.O=S(=O)(O)O (centres unmarked) [Comparative Example 3, 2-Amino-1,4-dihydro-6-methyl-4-(3-nitrophenyl)-3,5-pyridinedicarboxylic Acid 3-(1-diphenylmethylazetidin-3-yl)ester 5-isopropyl Ester Monosulfate, reference compound]
